The structures appear in SMILES notation.

The target of assay [1] is T1, GAL4RXR + VP16DmEcR (Drosophila melanogaster, UniProt P34021).
T1 sequence (P34021 254-878): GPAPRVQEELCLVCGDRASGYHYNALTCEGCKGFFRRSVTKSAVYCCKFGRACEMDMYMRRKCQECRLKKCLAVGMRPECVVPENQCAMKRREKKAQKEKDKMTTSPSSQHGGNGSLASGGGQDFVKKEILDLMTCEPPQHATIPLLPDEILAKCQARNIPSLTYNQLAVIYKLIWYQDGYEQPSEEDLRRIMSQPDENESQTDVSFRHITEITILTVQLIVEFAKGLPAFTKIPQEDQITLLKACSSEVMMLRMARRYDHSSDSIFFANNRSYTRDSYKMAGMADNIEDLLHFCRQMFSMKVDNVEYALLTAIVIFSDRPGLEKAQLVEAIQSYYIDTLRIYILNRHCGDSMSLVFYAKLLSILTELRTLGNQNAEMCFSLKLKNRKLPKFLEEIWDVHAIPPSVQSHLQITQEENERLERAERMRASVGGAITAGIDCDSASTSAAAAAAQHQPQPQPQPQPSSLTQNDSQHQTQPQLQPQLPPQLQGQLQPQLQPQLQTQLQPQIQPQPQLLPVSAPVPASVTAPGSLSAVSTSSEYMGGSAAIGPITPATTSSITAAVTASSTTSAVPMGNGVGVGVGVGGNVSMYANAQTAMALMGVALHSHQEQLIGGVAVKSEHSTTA
T1 sequence (P28700 206-467 partner limits assumed): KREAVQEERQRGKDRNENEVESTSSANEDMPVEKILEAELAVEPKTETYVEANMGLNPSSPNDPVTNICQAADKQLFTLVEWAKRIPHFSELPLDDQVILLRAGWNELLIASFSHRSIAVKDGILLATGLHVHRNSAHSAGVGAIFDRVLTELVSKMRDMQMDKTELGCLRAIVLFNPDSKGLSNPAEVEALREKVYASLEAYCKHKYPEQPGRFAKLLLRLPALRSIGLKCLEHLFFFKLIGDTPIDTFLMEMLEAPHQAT
The assay can be described thus: Transactivation of reporter genes through switch 1.4 in CHO cells. Format: cell-based. Also on record: expressed in transfected cells; host or cells: CHO cells (transient co-transfection). Particulars: switch 1.4 GAL4RXR + VP16DmEcR, pGAL4RELuc. Here is the method: (§1) This construct was prepared in the same way as switch 1.3 except CfEcRCDEF was replaced with DmEcRCDEF (SEQ ID NO: 6).
The cells were harvested and reporter activity was assayed.
(§2) Cells were harvested 24-48 hr after adding ligands. […] Twenty μl of lysate was assayed.
In general terms: A reporter such as luciferase makes a cellular process visible.

A further assay deals with VP16CfEcR. In words: Transactivation of reporter genes through switch 1.7 in 293 cells. Format: cell-based, Choristoneura fumiferana. Particulars: switch 1.7 VP16CfEcR, pEcRELuc. Here is the method:
Six ecdysone response elements (“EcRE”; SEQ ID NO: 59) from the hsp27 gene were placed upstream of the promoter and a luciferase gene (SEQ ID NO: 57). This switch most probably uses endogenous RXR.
(§3) The same procedures described for CHO were followed for 293 cells except that the cells were plated in biocoated plates to avoid clumping.
as §2

The next assay concerns GAL4EcR + VP16RXR. In words: Transactivation of reporter genes through switch 1.1 in 293 cells. Particulars: switch 1.1 GAL4EcR + VP16RXR, pGAL4RELuc. Format: cell-based, Choristoneura fumiferana. Here is the method:
as §3, §2

Assay [2] addresses T1, GAL4RXR + VP16DmEcR. The assay can be described thus: Transactivation of reporter genes through switch 1.4 in 3T3 cells. The following applies: switch 1.4 GAL4RXR + VP16DmEcR, pGAL4RELuc. Format: cell-based. Here is the method:
as §1
(§4) The cells were plated when they reached 50% confluency.
as §2

The test system of another assay is GAL4CfEcRVP16. The assay can be described thus: Transactivation of reporter genes through switch 1.6 in 3T3 cells. Format: cell-based, Choristoneura fumiferana. Particulars: switch 1.6 GAL4CfEcRVP16, pGAL4RELuc. Here is the method: This construct was prepared so that both the GAL4 DNABD and the VP16AD were placed on the same molecule. GAL4DNABD (SEQ ID NO: 41) and VP16AD (SEQ ID NO: 45) were fused to CfEcRDEF (SEQ ID NO: 3) at N- and C-termini respectively.
as §4, §2

`CCc1c(OC)cccc1C(=O)NN(C(=O)c1cc(C)cc(C)c1)C(C)(C)C` [N-(2-ethyl-3-methoxybenzoyl)-N′-(3,5-dimethylbenzoyl)-N′-tert-butylhydrazine]: the “Mean Fold Activation with 50 μM N-(2-ethyl-3-methoxybenzoyl)-N′-(3,5-dimethylbenzoyl)-N′-t-butylhydrazine” value at GAL4RXR + VP16DmEcR [1] was 312 fold. Moreover, the “Mean Fold Activation Through N-(2-ethyl-3-methoxybenzoyl)-N′-(3,5-dimethylbenzoyl)-N′-t-butylhydrazine” value in the assay on VP16CfEcR was 2 fold; in the assay on GAL4EcR + VP16RXR it was 125 fold; at GAL4RXR + VP16DmEcR [2], 269 fold; in the assay on GAL4CfEcRVP16, 7 fold.

These data come from patent US8822754B2, “Ecdysone receptor-based inducible gene expression system” (Intrexon Corporation, priority 2000, dated 2014).
